Experiments:
native avidin [1] = target: T1, native avidin (Gallus gallus, UniProt P02701); assay: Biotin effect on quenched fluorescence; type: binding; conditions: native avidin 5 μM; free initiator or free initiation inhibitor 5.12 mM; biotin 10 μM
T1 construct: Avidin is a tetrameric protein purified from egg white; purchased Lee Biosolutions; host or cells: egg white
Procedure: Biotin effect on quenched fluorescence: […] Free initiator (10 μL, final concentrations 5.12 mM) or free initiation inhibitor (10 μL, final concentrations 5.12 mM) were added to avidin solution and florescence intensities were measured. After the fluorescence intensities were recorded with free initiator or free initiation inhibitor, biotin (10 μL, final concentration 10 μM) was added to the mixture and fluorescence intensities were measured again.

native avidin [2] = target: T1, native avidin; assay: Tryptophan fluorescence quenching assay; type: binding; conditions: native avidin 5 μM; added at 20 μM-5.12 mM
Procedure: Tryptophan fluorescence quenching assay: Intrinsic tryptophan fluorescence intensity of native avidin (180 μL, final concentration 5 μM) was measured at an excitation wavelength of 270 nm and emission of 300-400 nm in a 96-well plate. N-2-bromo-2-methylpropanoyl-β-alanine (free initiator) (20 μL, final concentrations 20 μM, 80 μM, 320 μM, 1.28 mM, 5.12 mM) or N-2-methylpropanoyl-β-alanine (free initiation inhibitor) (20 μL, final concentrations 20 μM, 80 μM, 320 μM, 1.28 mM, 5.12 mM) were added to native avidin and tryptophan fluorescence was measured again.

Biotin-HRP = assay: Stopped-flow biotin-protein binding kinetics, biotin-HRP; conditions: avidin 0.5 μM, biotin-protein 5.0 μM, 0.1 M phosphate buffer pH 8
Procedure: (§1) The solution was stirred at 4° C. for 2 hours and protein-biotin conjugates were purified by dialysis using 15 kDa molecular mass cutoff dialysis tube in deionized water and then lyophilized.
(§2) Biotin-Protein binding kinetics: For biotinylated protein binding kinetics avidin conjugates (0.5 μM final) were mixed with biotin-protein (5.0 μM final) in a stopped-flow accessory on PTI QuantaMaster-400 fluorometer (Horiba Instruments Inc.). The dead time of the instrument was 60 ms. The excitation wavelength was 295 nm (to selectively excite tryptophan residues) with a 20 nm bandwidth (Skelly et al., FEBS Lett 262:127-130, 1990). Excitation occurred through a 1.96-mm path in the stopped-flow optical cell, and emission was measured through a 7.68-mm path. […]
(§3) Instrumentation and Sample Analysis Preparations: ^1H and ^13C NMR were recorded on a spectrometer (300 MHz, 75 MHz, Bruker Avance™ 300), with deuterium oxide (D2O), DMSO-d6, and CDCl3. […] Melting points (mp) were measured with a Laboratory Devices Mel-Temp. […] The hydrodynamic diameter of samples was measured three times (5 run to each measurement, reported as number distribution) in 0.1 M sodium phosphate, pH 8. Biotin and bio-PEG binding kinetics were measured using a stopped-flow spectrometer with fluorescence detection (Applied Photophysics SX20). […] The excitation wavelength was set to 295 nm and emission wavelength was monitored at 340 nm. […]

[3] = work described elsewhere (Kurzban et al.); 337 to 324 nm, blue shift in emission; cited from earlier work
[4] = Stopped-flow biotin-PEG binding kinetics, 30 kDa; conditions: avidin 0.5 μM, biotin-PEG 5.0 μM, 0.1 M phosphate buffer pH 8
Procedure: (§4) Biotin and biotin PEG binding kinetics: Kinetic measurements of avidin-pCBMA conjugates with biotin and biotin-PEG substrates were taken using a stopped-flow spectrometer with fluorescence detection (Applied Photophysics SX20). The dead time of the instrument was 2 ms. The excitation wavelength was 270 nm with 5 nm bandwidth. Instrument permitted to collect 1000 data points throughput the reaction (0.1-450 s). For all experiments avidin concentration was 0.5 μM (final) and biotin or biotin-PEG concentration was 5.0 μM (final). Reactions were initiated by mixing equal volumes of avidin with its substrates in 0.1 M phosphate buffer, pH 8. Fluorescence was measured in volts. Data were fit to single exponential functions using F(t)=F∞·ΔFexp(−kobst) equation, where, kobs is the observed first-order rate constant, F∞ is the final value of fluorescence and ΔF is the amplitude. In case of native avidin kinetics the data were fit to single exponential functions using F(t)=F∞+ΔFexp(−kobst) equation, where, kobs is the observed first-order rate constant, F∞ is the final value of fluorescence and ΔF is the amplitude. […]
(§5) Instrumentation and Sample Analysis Preparations: ^1H and ^13C NMR were recorded on a spectrometer (300 MHz, 75 MHz, Bruker Avance™ 300), with deuterium oxide (D2O), DMSO-d6, and CDCl3. […] Melting points (mp) were measured with a Laboratory Devices Mel-Temp. […]

[5] = Stopped-flow biotin-PEG binding kinetics, 5 kDa; conditions: avidin 0.5 μM, biotin-PEG 5.0 μM, 0.1 M phosphate buffer pH 8
Procedure: as §4, §5

[6] = Stopped-flow biotin-PEG binding kinetics, 550 Da; conditions: for Biotin-PEG 550 Da k/s^−1: avidin 0.5 μM, biotin-PEG 5.0 μM, 0.1 M phosphate buffer pH 8
Procedure: Biotin and biotin PEG binding kinetics: Kinetic measurements of avidin-pCBMA conjugates with biotin and biotin-PEG substrates were taken using a stopped-flow spectrometer with fluorescence detection (Applied Photophysics SX20). The dead time of the instrument was 2 ms. The excitation wavelength was 270 nm with 5 nm bandwidth. Instrument permitted to collect 1000 data points throughput the reaction (0.1-450 s). For all experiments avidin concentration was 0.5 μM (final) and biotin or biotin-PEG concentration was 5.0 μM (final). Reactions were initiated by mixing equal volumes of avidin with its substrates in 0.1 M phosphate buffer, pH 8. Fluorescence was measured in volts. Data were fit to single exponential functions using F(t)=F∞·ΔFexp(−kobst) equation, where, kobs is the observed first-order rate constant, F∞ is the final value of fluorescence and ΔF is the amplitude. In case of native avidin kinetics the data were fit to single exponential functions using F(t)=F∞+ΔFexp(−kobst) equation, where, kobs is the observed first-order rate constant, F∞ is the final value of fluorescence and ΔF is the amplitude. All data analysis was performed in Microsoft Excel.
Instrumentation and Sample Analysis Preparations: ^1H and ^13C NMR were recorded on a spectrometer (300 MHz, 75 MHz, Bruker Avance™ 300), with deuterium oxide (D2O), DMSO-d6, and CDCl3. Routine FT-IR spectra were obtained with a Nicolet Magna-IR 560 spectrometer (Thermo). UV-VIS spectra were obtained and used for protein concentration determination using a UV-VIS spectrometer (Lambda 2, PerkinElmer). Melting points (mp) were measured with a Laboratory Devices Mel-Temp. […] The hydrodynamic diameter of samples was measured three times (5 run to each measurement, reported as number distribution) in 0.1 M sodium phosphate, pH 8. Biotin and bio-PEG binding kinetics were measured using a stopped-flow spectrometer with fluorescence detection (Applied Photophysics SX20). […] The excitation wavelength was set to 295 nm and emission wavelength was monitored at 340 nm. […] Fluorescence was measured in volts.

[7] = Stopped-flow binding kinetics of biotin to avidin and avidin-pCBMA conjugates; conditions: kobs first-order, avidin 0.5 μM, biotin 5.0 μM, 0.1 M phosphate buffer pH 8
Procedure: as §4, §5

Biotin-aprotinin = target: T2, Biotin-aprotinin (Bos taurus, UniProt P00974); assay: Stopped-flow biotin-protein binding kinetics, biotin-aprotinin; conditions: avidin 0.5 μM, biotin-protein 5.0 μM, 0.1 M phosphate buffer pH 8
T2 construct: purchased Sigma Aldrich
Procedure: as §1, §2, §3

[8] = Stopped-flow biotin-PEG binding kinetics, 10 kDa; conditions: avidin 0.5 μM, biotin-PEG 5.0 μM, 0.1 M phosphate buffer pH 8
Procedure: as §4, §5

[9] = Hydrodynamic diameter by dynamic light scattering; type: physicochemical; conditions: DLS; for substrate size (Dh): biotinylated substrates, text and FIG. 10 legend
Procedure: Measuring conjugate hydrodynamic diameter: The DLS data was collected on a Malvern Zetasizer nano-ZS. Native avidin and avidin conjugates ([…]) were dissolved in 0.1 M sodium phosphate, pH 8. The hydrodynamic diameter (Dh) of the samples was measured three times (12 runs/measurement). Reported values are number distribution intensities.
Instrumentation and Sample Analysis Preparations: ^1H and ^13C NMR were recorded on a spectrometer (300 MHz, 75 MHz, Bruker Avance™ 300), with deuterium oxide (D2O), DMSO-d6, and CDCl3. Routine FT-IR spectra were obtained with a Nicolet Magna-IR 560 spectrometer (Thermo). UV-VIS spectra were obtained and used for protein concentration determination using a UV-VIS spectrometer (Lambda 2, PerkinElmer). Melting points (mp) were measured with a Laboratory Devices Mel-Temp. Number and weight average molecular weights (Mn and Mw) and the polydispersity index (Mw/Mn) were estimated by gel permeation chromatography (GPC) on a Water 2695 Series with a data processor, equipped with three columns (Waters Ultrahydrogel Linier, 500 and 250), using Dulbecco's Phosphate Buffered Saline with 0.02 wt % sodium azide as an eluent at flow rate 1.0 mL/min, with detection by a refractive index (RI) detector. Pullulan standards (PSS-Polymer Standards Service—USA Inc., Amherst, Mass.) were used for calibration. Matrix-Assisted Laser Desorption Ionization Time-of-Flight Spectrometry (MALDI-ToF MS) was performed with a Perseptive Biosystems Voyager Elite MALDI-TOF spectrometer. Dynamic Light Scattering (DLS) data were collected on a Malvern Zetasizer nano-ZS. The concentration of the sample solution was kept at 1.0 mg/mL. The hydrodynamic diameter of samples was measured three times (5 run to each measurement, reported as number distribution) in 0.1 M sodium phosphate, pH 8. Biotin and bio-PEG binding kinetics were measured using a stopped-flow spectrometer with fluorescence detection (Applied Photophysics SX20). […] The excitation wavelength was set to 295 nm and emission wavelength was monitored at 340 nm. […] Fluorescence was measured in volts.

[10] = Table 4, low-density avidin conjugates
[11] = Table 9, high-density avidin conjugates

## O=C(O)CCCC[C@@H]1SC[C@@H]2NC(=O)N[C@@H]21 [biotin]
Native avidin [1]
  effect on tryptophan fluorescence of native avidin incubated with free initiator or free initiation inhibitor: restored the quenched tryptophan fluorescence

## CC(C)C(=O)NCCC(=O)O [free initiation inhibitor, N-2-methylpropanoyl-β-alanine]
Native avidin [1]
  effect on tryptophan fluorescence of native avidin incubated with free initiator or free initiation inhibitor: did not have effect on fluorescence
Native avidin [2]
  quenching of native avidin tryptophan fluorescence: None of the tested concentrations of initiation inhibitor had an effect on fluorescence

## Native avidin
Biotin-HRP; [10]
  Biotin-HRP k/s^−1: 5.03 s⁻¹
Biotin-HRP; [11]
  Biotin-HRP k/s^−1: 5.03 s⁻¹
[3]
  intrinsic tryptophan fluorescence of avidin upon biotin binding: decreased
[4]; [10]
  Biotin-PEG 30 kDa k/s^−1: 5.89 s⁻¹
[4]; [11]
  Biotin-PEG 30 kDa k/s^−1: 5.89 s⁻¹
[5]; [10]
  Biotin-PEG 5 kDa k/s^−1: 17.02 s⁻¹
[5]; [11]
  Biotin-PEG 5 kDa k/s^−1: 17.02 s⁻¹
[6]; [10]
  Biotin-PEG 550 Da k/s^−1: 20.93 s⁻¹
[6]; [11]
  Biotin-PEG 550 Da k/s^−1: 20.93 s⁻¹
[6]; relative to biotin binding rate
  binding rate of biotin-PEG 550 Da, slower than biotin: 80%
[7]; [10]
  Biotin k/s^−1: 105.21 s⁻¹
[7]; [11]
  Biotin k/s^−1: 105.21 s⁻¹
Biotin-aprotinin; [10]
  Biotin-aprotinin k/s^−1: 73.45 s⁻¹
Biotin-aprotinin; [11]
  Biotin-aprotinin k/s^−1: 73.45 s⁻¹
[8]; [10]
  Biotin-PEG 10 kDa k/s^−1: 12.02 s⁻¹
[8]; [11]
  Biotin-PEG 10 kDa k/s^−1: 12.02 s⁻¹

## Aprotinin [reference compound]
[9]; bio-pro substrates, Table 3
  Dh (hydrodynamic size): 2.4 ± 0.4
[9]; listed as biotin-aprotinin
  substrate size (Dh): 2.4±0.4 nm
[9]; listed as biotinylated aprotinin
  substrate size (Dh): 2.4 nm

## CC(C)(Br)C(=O)NCCC(=O)O [free initiator, N-2-bromo-2-methylpropanoyl-β-alanine]
Native avidin [2]
  quenching of native avidin tryptophan fluorescence: higher degree of fluorescence quenching
